Source: patent US20240025884A1 (Dong-A ST Co., Ltd., priority 2022, published 2024)
pIC50: −log10 of the molar value.

Target: GCN2 (Homo sapiens (Human), UniProt Q9P2K8)
Test: GCN2 Biochemical Assay (TR-FRET, GFP-eIF2S1 substrate phosphorylation)
Conditions: read-out: IC50 (GCN2 Inhibitory Activity)
Method in brief: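 In-house GCN2 (1.6 nM 2× stock) phosphorylates GFP-eIF2S1 (50 nM 2× stock) with ATP (0.2 mM 2× stock) and tRNA, pH 7.5, 70 min at room temperature; 10-point 3.16-fold compound series. TR-FRET detection with Tb-anti-phospho antibody, 2–3 h, Ex 340/Em 490/520 nm; artifact plate spiked with phospho-substrate.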

Chain of GCN2 (Q9P2K8 whole entry): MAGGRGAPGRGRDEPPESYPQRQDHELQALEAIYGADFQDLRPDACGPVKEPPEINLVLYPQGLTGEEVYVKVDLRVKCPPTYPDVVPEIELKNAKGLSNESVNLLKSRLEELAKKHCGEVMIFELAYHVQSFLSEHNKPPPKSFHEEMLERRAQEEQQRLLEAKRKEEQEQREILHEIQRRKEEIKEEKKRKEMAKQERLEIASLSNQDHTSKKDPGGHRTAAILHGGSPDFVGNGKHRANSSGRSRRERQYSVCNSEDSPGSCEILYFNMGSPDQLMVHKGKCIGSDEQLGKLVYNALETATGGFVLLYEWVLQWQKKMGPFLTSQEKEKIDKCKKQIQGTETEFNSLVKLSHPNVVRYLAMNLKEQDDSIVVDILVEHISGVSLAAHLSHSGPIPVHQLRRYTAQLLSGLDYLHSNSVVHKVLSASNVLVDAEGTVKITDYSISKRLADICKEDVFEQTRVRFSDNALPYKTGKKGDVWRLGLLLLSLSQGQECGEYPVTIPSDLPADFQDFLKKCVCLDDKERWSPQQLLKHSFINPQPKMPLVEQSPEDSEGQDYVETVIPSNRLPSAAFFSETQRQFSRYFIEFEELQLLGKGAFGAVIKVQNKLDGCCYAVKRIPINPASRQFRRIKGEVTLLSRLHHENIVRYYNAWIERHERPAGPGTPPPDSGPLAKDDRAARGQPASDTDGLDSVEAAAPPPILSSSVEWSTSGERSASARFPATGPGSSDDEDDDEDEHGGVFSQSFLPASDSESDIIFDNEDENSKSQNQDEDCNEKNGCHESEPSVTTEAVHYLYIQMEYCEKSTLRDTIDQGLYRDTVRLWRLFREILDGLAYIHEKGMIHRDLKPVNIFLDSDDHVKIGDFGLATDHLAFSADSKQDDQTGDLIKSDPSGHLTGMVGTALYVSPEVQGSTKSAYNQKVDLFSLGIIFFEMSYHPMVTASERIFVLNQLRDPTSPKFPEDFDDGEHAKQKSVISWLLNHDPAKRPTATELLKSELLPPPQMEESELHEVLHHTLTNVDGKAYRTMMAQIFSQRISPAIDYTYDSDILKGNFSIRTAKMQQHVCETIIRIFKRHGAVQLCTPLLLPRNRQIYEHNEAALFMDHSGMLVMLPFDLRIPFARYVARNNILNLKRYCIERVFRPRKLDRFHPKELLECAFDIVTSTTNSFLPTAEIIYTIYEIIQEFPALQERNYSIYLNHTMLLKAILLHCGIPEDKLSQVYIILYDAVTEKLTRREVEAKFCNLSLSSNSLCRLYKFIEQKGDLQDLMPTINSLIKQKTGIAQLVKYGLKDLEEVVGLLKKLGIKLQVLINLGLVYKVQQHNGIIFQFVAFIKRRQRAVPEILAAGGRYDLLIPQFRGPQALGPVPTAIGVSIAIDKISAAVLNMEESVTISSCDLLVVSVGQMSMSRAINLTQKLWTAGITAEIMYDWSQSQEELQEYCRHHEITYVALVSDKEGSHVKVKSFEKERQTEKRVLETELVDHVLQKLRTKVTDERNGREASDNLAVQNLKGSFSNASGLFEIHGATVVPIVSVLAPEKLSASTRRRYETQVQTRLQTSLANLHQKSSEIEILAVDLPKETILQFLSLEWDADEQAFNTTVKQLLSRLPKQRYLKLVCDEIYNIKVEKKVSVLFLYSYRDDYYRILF

| Compound | pIC50 |
| --- | --- |
| Cc1cnc(Nc2cc(C)n(C)n2)nc1-c1c[nH]c2c(N3Cc4c(NC(=O)C5CCCCC5)cccc4C3=O)cccc12 [Example 295, N-(2-(3-(2-((1,5-dimethyl-1H-pyrazol-3-yl)amino)-5-methylpyrimidin-4-yl)-1H-indol-7-yl)-1-oxoisoindolin-4-yl)cyclohexanecarboxamide] | 7.00 to 8.00 |
| Cc1cnc(Nc2cc(C)n(C)n2)nc1-c1c[nH]c2c(N3Cc4c(NC(=O)N5CCOCC5)cccc4C3=O)cccc12 [Example 296, N-(2-(3-(2-((1,5-dimethyl-1H-pyrazol-3-yl)amino)-5-methylpyrimidin-4-yl)-1H-indol-7-yl)-1-oxoisoindolin-4-yl)morpholine-4-carboxamide] | > 8.00 |
| Cc1cnc(Nc2cc(C)n(C)n2)nc1-c1c[nH]c2c(N3Cc4c(NC(=O)c5ccccn5)cccc4C3=O)cccc12 [Example 297, N-(2-(3-(2-((1,5-dimethyl-1H-pyrazol-3-yl)amino)-5-methylpyrimidin-4-yl)-1H-indol-7-yl)-1-oxoisoindolin-4-yl)picolinamide] | > 8.00 |
| Cc1cnc(Nc2cc(C)n(C)n2)nc1-c1c[nH]c2c(N3Cc4c(NC(=O)c5cccnc5)cccc4C3=O)cccc12 [Example 298, N-(2-(3-(2-((1,5-dimethyl-1H-pyrazol-3-yl)amino)-5-methylpyrimidin-4-yl)-1H-indol-7-yl)-1-oxoisoindolin-4-yl)nicotinamide] | > 8.00 |
| Cc1cnc(Nc2cc(C)n(C)n2)nc1-c1c[nH]c2c(N3Cc4c(NC(=O)c5cocn5)cccc4C3=O)cccc12 [Example 299, N-(2-(3-(2-((1,5-dimethyl-1H-pyrazol-3-yl)amino)-5-methylpyrimidin-4-yl)-1H-indol-7-yl)-1-oxoisoindolin-4-yl)oxazole-4-carboxamide] | > 8.00 |
| Cc1cnc(Nc2cc(C)n(C)n2)nc1-c1c[nH]c2c(N3Cc4c(NC(=O)C5CC5)cccc4C3=O)cccc12 [Example 300, N-(2-(3-(2-((1,5-dimethyl-1H-pyrazol-3-yl)amino)-5-methylpyrimidin-4-yl)-1H-indol-7-yl)-1-oxoisoindolin-4-yl)cyclopropanecarboxamide] | > 8.00 |
| Cc1cnc(Nc2cc(C)n(C)n2)nc1-c1c[nH]c2c(N3Cc4c(NC(=O)c5ccncc5)cccc4C3=O)cccc12 [Example 301, N-(2-(3-(2-((1,5-dimethyl-1H-pyrazol-3-yl)amino)-5-methylpyrimidin-4-yl)-1H-indol-7-yl)-1-oxoisoindolin-4-yl)isonicotinamide] | > 8.00 |
| Cc1cnc(Nc2cc(C)n(C)n2)nc1-c1c[nH]c2c(N3Cc4c(NC(=O)c5ccnnc5)cccc4C3=O)cccc12 [Example 302, N-(2-(3-(2-((1,5-dimethyl-1H-pyrazol-3-yl)amino)-5-methylpyrimidin-4-yl)-1H-indol-7-yl)-1-oxoisoindolin-4-yl)pyridazine-4-carboxamide] | > 8.00 |
| Cc1cnc(Nc2cc(C)n(C)n2)nc1-c1c[nH]c2c(N3Cc4c(NC(=O)C5CCC(C)CC5)cccc4C3=O)cccc12 (stereo not drawn) [Example 303, N-(2-(3-(2-((1,5-dimethyl-1H-pyrazol-3-yl)amino)-5-methylpyrimidin-4-yl)-1H-indol-7-yl)-1-oxoisoindolin-4-yl)-4-methylcyclohexane-1-carboxamide] | > 8.00 |
| Cc1cnc(Nc2cc(C)n(C)n2)nc1-c1c[nH]c2c(N3Cc4c(NC(=O)Cc5cccc(O)c5)cccc4C3=O)cccc12 [Example 304, N-(2-(3-(2-((1,5-dimethyl-1H-pyrazol-3-yl)amino)-5-methylpyrimidin-4-yl)-1H-indol-7-yl)-1-oxoisoindolin-4-yl)-2-(3-hydroxyphenyl)acetamide] | > 8.00 |
| Cc1cnc(Nc2cc(C)n(C)n2)nc1-c1c[nH]c2c(N3Cc4c(NC(=O)Cc5ccccc5)cccc4C3=O)cccc12 [Example 305, N-(2-(3-(2-((1,5-dimethyl-1H-pyrazol-3-yl)amino)-5-methylpyrimidin-4-yl)-1H-indol-7-yl)-1-oxoisoindolin-4-yl)-2-phenylacetamide] | > 8.00 |
| Cc1cnc(Nc2cc(C)n(C)n2)nc1-c1c[nH]c2c(N3Cc4c(NC(=O)C5CCN(C)CC5)cccc4C3=O)cccc12 [Example 306, N-(2-(3-(2-((1,5-dimethyl-1H-pyrazol-3-yl)amino)-5-methylpyrimidin-4-yl)-1H-indol-7-yl)-1-oxoisoindolin-4-yl)-1-methylpiperidine-4-carboxamide] | > 8.00 |
| Cc1cnc(Nc2cc(C)n(C)n2)nc1-c1c[nH]c2c(N3Cc4c(NC(=O)C5CCCN(C)C5)cccc4C3=O)cccc12 (stereo not drawn) [Example 307, N-(2-(3-(2-((1,5-dimethyl-1H-pyrazol-3-yl)amino)-5-methylpyrimidin-4-yl)-1H-indol-7-yl)-1-oxoisoindolin-4-yl)-1-methylpiperidine-3-carboxamide] | > 8.00 |
| Cc1cnc(Nc2cc(C)n(C)n2)nc1-c1c[nH]c2c(N3Cc4c(NC(=O)C5CCC(=O)N5)cccc4C3=O)cccc12 (stereo not drawn) [Example 308, N-(2-(3-(2-((1,5-dimethyl-1H-pyrazol-3-yl)amino)-5-methylpyrimidin-4-yl)-1H-indol-7-yl)-1-oxoisoindolin-4-yl)-5-oxopyrrolidine-2-carboxamide] | > 8.00 |
| Cc1cnc(Nc2cc(C)n(C)n2)nc1-c1c[nH]c2c(N3Cc4c(NC(=O)C5CC=CCC5)cccc4C3=O)cccc12 (stereo not drawn) [Example 309, N-(2-(3-(2-((1,5-dimethyl-1H-pyrazol-3-yl)amino)-5-methylpyrimidin-4-yl)-1H-indol-7-yl)-1-oxoisoindolin-4-yl)cyclohex-3-ene-1-carboxamide] | 7.00 to 8.00 |
| Cc1cnc(Nc2cc(C)n(C)n2)nc1-c1c[nH]c2c(N3Cc4c(NC(=O)C5CC=CC5)cccc4C3=O)cccc12 [Example 310, N-(2-(3-(2-((1,5-dimethyl-1H-pyrazol-3-yl)amino)-5-methylpyrimidin-4-yl)-1H-indol-7-yl)-1-oxoisoindolin-4-yl)cyclopent-3-ene-1-carboxamide] | > 8.00 |
| Cc1cnc(Nc2cc(C)n(C)n2)nc1-c1c[nH]c2c(N3Cc4c(NC(=O)C5(C)CC=CC5)cccc4C3=O)cccc12 [Example 311, N-(2-(3-(2-((1,5-dimethyl-1H-pyrazol-3-yl)amino)-5-methylpyrimidin-4-yl)-1H-indol-7-yl)-1-oxoisoindolin-4-yl)-1-methylcyclopent-3-ene-1-carboxamide] | 7.00 to 8.00 |
| Cc1cnc(Nc2cc(C)n(C)n2)nc1-c1c[nH]c2c(N3Cc4c(NC(=O)C5CCCCCC5)cccc4C3=O)cccc12 [Example 312, N-(2-(3-(2-((1,5-dimethyl-1H-pyrazol-3-yl)amino)-5-methylpyrimidin-4-yl)-1H-indol-7-yl)-1-oxoisoindolin-4-yl)cycloheptanecarboxamide] | 7.00 to 8.00 |
| Cc1cnc(Nc2cc(C)n(C)n2)nc1-c1c[nH]c2c(N3Cc4c(NC(=O)N5CCNC5=O)cccc4C3=O)cccc12 [Example 313, N-(2-(3-(2-((1,5-dimethyl-1H-pyrazol-3-yl)amino)-5-methylpyrimidin-4-yl)-1H-indol-7-yl)-1-oxoisoindolin-4-yl)-2-oxoimidazolidine-1-carboxamide] | > 8.00 |
| Cc1cnc(Nc2cc(C)n(C)n2)nc1-c1c[nH]c2c(N3Cc4c(NC(=O)C5Cc6ccccc6C5)cccc4C3=O)cccc12 [Example 314, N-(2-(3-(2-((1,5-dimethyl-1H-pyrazol-3-yl)amino)-5-methylpyrimidin-4-yl)-1H-indol-7-yl)-1-oxoisoindolin-4-yl)-2,3-dihydro-1H-indene-2-carboxamide] | 7.00 to 8.00 |
| Cc1cnc(Nc2cc(C)n(C)n2)nc1-c1c[nH]c2c(N3Cc4c(NC(=O)[C@@H]5CCNC5)cccc4C3=O)cccc12 [Example 315, (R)-N-(2-(3-(2-((1,5-dimethyl-1H-pyrazol-3-yl)amino)-5-methylpyrimidin-4-yl)-1H-indol-7-yl)-1-oxoisoindolin-4-yl)pyrrolidine-3-carboxamide] | > 8.00 |
| Cc1cnc(Nc2cc(C)n(C)n2)nc1-c1c[nH]c2c(N3Cc4c(NC(=O)[C@H]5CCNC5)cccc4C3=O)cccc12 [Example 316, (S)-N-(2-(3-(2-((1,5-dimethyl-1H-pyrazol-3-yl)amino)-5-methylpyrimidin-4-yl)-1H-indol-7-yl)-1-oxoisoindolin-4-yl)pyrrolidine-3-carboxamide] | 7.00 to 8.00 |
| Cc1cnc(Nc2cc(C)n(C)n2)nc1-c1c[nH]c2c(N3Cc4c(NC(=O)[C@@H]5CCC(=O)N5)cccc4C3=O)cccc12 [Example 317, (S)-N-(2-(3-(2-((1,5-dimethyl-1H-pyrazol-3-yl)amino)-5-methylpyrimidin-4-yl)-1H-indol-7-yl)-1-oxoisoindolin-4-yl)-5-oxopyrrolidine-2-carboxamide] | > 8.00 |
| Cc1cnc(Nc2cc(C)n(C)n2)nc1-c1c[nH]c2c(N3Cc4c(NC(=O)[C@H]5CCC(=O)N5)cccc4C3=O)cccc12 [Example 318, (R)-N-(2-(3-(2-((1,5-dimethyl-1H-pyrazol-3-yl)amino)-5-methylpyrimidin-4-yl)-1H-indol-7-yl)-1-oxoisoindolin-4-yl)-5-oxopyrrolidine-2-carboxamide] | > 8.00 |
| Cc1cnc(Nc2cc(C)n(C)n2)nc1-c1c[nH]c2c(N3Cc4c(NC(=O)C5CCCNC5)cccc4C3=O)cccc12 (stereo not drawn) [Example 319, N-(2-(3-(2-((1,5-dimethyl-1H-pyrazol-3-yl)amino)-5-methylpyrimidin-4-yl)-1H-indol-7-yl)-1-oxoisoindolin-4-yl)piperidine-3-carboxamide] | > 8.00 |
| Cc1cnc(Nc2cc(C)n(C)n2)nc1-c1c[nH]c2c(N3Cc4c(NC(=O)C5CCC(=O)CC5)cccc4C3=O)cccc12 [Example 320, N-(2-(3-(2-((1,5-dimethyl-1H-pyrazol-3-yl)amino)-5-methylpyrimidin-4-yl)-1H-indol-7-yl)-1-oxoisoindolin-4-yl)-4-oxocyclohexane-1-carboxamide] | > 8.00 |
| Cc1cnc(Nc2cc(C)n(C)n2)nc1-c1c[nH]c2c(N3Cc4c(NC(=O)c5cnoc5C)cccc4C3=O)cccc12 [Example 321, N-(2-(3-(2-((1,5-dimethyl-1H-pyrazol-3-yl)amino)-5-methylpyrimidin-4-yl)-1H-indol-7-yl)-1-oxoisoindolin-4-yl)-5-methylisoxazole-4-carboxamide] | > 8.00 |
